Read-outs that look alike come from different tables or passages of the source.
Columns and labels:
Type in all cases: cell-based
[1] = tested on: breast cancer cells (MCF7); experiment: RT-PCR of EMT-induced MCF7 cells cultured in medium including TSA, SB or CoCl2; details: for expression of EpCAM / expression of Twist / expression of snail: 0.5 μM TSA or 2.5 mM SB
[2] = tested on: breast cancer cells (MCF7); experiment: western blotting of EMT-induced MCF7 cells cultured in TSA- or CoCl2-containing medium
[3] = tested on: prostate cancer cells (Du145); experiment: western blotting and RT-PCR of EMT-induced DU145 cells cultured in medium including TSA, SB or CoCl2
[4] = tested on: lung cancer cells (NCI-1650); experiment: western blotting of EMT-induced NCI-1650 cells cultured in TSA-containing medium; details: NCI-1650, western blotting, 0.5 μM TSA, one day
[5] = tested on: lung cancer cells (NCI-1650); experiment: RT-PCR of EMT-induced NCI-1650 cells cultured in TSA-containing medium; details: NCI-1650, RT-PCR, 0.5 μM TSA, one day
[6] = MCF7, RT-PCR, 0.5 μM TSA, 2.5 mM SB or 400 μM CoCl2, one day
[7] = DU145, western blotting/RT-PCR, 0.5 μM TSA, 2.5 mM SB or 400 μM CoCl2, one day
[8] = MCF7, RT-PCR, 0.5 μM TSA or 400 μM CoCl2, one day
[9] = MCF7, western blotting (FIG. 15: western/RT-PCR not told apart), 0.5 μM TSA or 400 μM CoCl2, one day

SMILES: [Cl-].[Cl-].[Co+2] [CoCl2]
- expression of ACACA [1]: decreased
- expression of ACOT1 [1]: decreased
- expression of FASN [1]: decreased
- expression of PPARγ [1]: decreased
- expression of PTPLB [1]: decreased
- expression of SCD1 [1]: increased
- expression of HIF-1α [2]: gradually increased
- expression of N-cadherein [2]: gradually increased
- expression of snail [2]: gradually increased
- expression of ACOT1 [3]: decreased
- expression of EpCAM [3]: increased
- expression of PTPLB [3]: decreased
- expression of SCD1 [3]: increased
- expression of snail [3]: increased

SMILES: CCCC(=O)[O-].[Na+] [SB, sodium butyrate]
- expression of EpCAM ([1]; MCF7, RT-PCR, one day): decreased
- expression of Twist ([1]; MCF7, RT-PCR, one day): increased
- expression of snail ([1]; MCF7, RT-PCR, one day): increased
- expression of ACOT1 [1, 6]: decreased
- expression of PTPLB [1, 6]: decreased
- expression of ACOT1 [3, 7]: decreased
- expression of EpCAM [3, 7]: increased
- expression of PTPLB [3, 7]: decreased
- expression of SCD1 [3, 7]: increased
- expression of snail [3, 7]: increased

SMILES: CC(/C=C/C(=O)NO)=C\[C@@H](C)C(=O)c1ccc(N(C)C)cc1 [TSA, Trichostatin A]
- expression of N-cadherein [4]: gradually increased
- expression of Vimentin [4]: gradually increased
- expression of snail [4]: gradually increased
- expression of ACACA [1, 8]: increased
- expression of PPARγ [1, 8]: decreased
- expression of SCD1 [1, 8]: increased
- expression of EpCAM ([1]; MCF7, RT-PCR, one day): decreased
- expression of Twist ([1]; MCF7, RT-PCR, one day): increased
- expression of snail ([1]; MCF7, RT-PCR, one day): increased
- expression of ACOT1 [1, 6]: decreased
- expression of PTPLB [1, 6]: decreased
- expression of N-cadherin ([1]; MCF7, RT-PCR, 0.5 μM TSA, one day): increased
- expression of N-cadherein [2, 9]: gradually increased
- expression of snail [2, 9]: gradually increased
- expression of E-cadherin ([2]; MCF7, western blotting, 0.5 μM TSA, cultured one day): decreased
- expression of ACOT1 [3, 7]: decreased
- expression of EpCAM [3, 7]: increased
- expression of PTPLB [3, 7]: decreased
- expression of SCD1 [3, 7]: increased
- expression of snail [3, 7]: increased
- expression of ACOT1 [5]: decreased
- expression of PTPLB [5]: decreased
- expression of SCD1 [5]: increased

Source: patent US20150094225A1, “METHOD OF OBTAINING INFORMATION FOR IDENTIFYING TUMOR CELL UNDERGOING EPITHELIAL-MESENCHYMAL TRANSITION IN SAMPLE, METHOD OF IDENTIFYING TUMOR CELL UNDERGOING EPITHELIAL-MESENCHYMAL TRANSITION IN SAMPLE, METHOD OF DIAGNOSING SUBJECT HAVING TUMOR CELL UNDERGOING EPITHELIAL-MESENCHYMAL TRANSITION AND …” (Samsung Electronics Co., Ltd., priority 2013, published 2015)
